Results as given in patent publication US5708015A, “Method for using pharmaceutical compositions containing 2-(2-alkyphenyl-amino)-thiazolines as adrenergic agents” (Allergan, priority 1996, dated 1998).
Like-named read-outs stand apart in the source and are kept apart here.

How the values were obtained:
[1] = molecular target: T1, α2 B adrenergic receptor (rat kidney cortex membranes) (Rattus norvegicus, UniProt P19328); assay: Alpha2 B (rat kidney) receptor binding assay
T1 construct: Membrane suspensions were prepared from human cerebral cortex (HCC), HT-29 cells (HT) and rat kidney cortex (RtKC); from tissue; host or cells: rat kidney cortex membranes
T1 sequence (P19328 1-453): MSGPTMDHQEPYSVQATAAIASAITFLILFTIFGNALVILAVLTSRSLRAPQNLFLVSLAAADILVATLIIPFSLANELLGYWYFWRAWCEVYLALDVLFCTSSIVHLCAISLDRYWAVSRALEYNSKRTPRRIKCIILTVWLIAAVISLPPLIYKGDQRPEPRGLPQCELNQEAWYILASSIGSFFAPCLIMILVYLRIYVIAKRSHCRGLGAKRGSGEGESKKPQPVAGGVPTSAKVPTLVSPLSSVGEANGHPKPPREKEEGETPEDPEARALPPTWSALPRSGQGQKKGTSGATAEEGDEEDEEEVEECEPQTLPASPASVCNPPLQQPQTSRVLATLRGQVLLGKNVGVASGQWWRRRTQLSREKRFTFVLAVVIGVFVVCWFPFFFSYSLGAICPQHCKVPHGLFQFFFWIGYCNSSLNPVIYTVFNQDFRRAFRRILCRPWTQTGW
Excerpt: (§1) The present compound or compounds may be included in a medication composition together with one or more other components to provide a medication composition which can be effectively administered. Such other components, e.g., carriers, anti-oxidants, bulking agents and the like, may be chosen from those materials which are conventional and well known in the art, e.g., as being included in medication compositions with α2 agonists. Whereas the effective dose of the compounds of the present compositions will depend on the nature of the host mammal and the specific diesease or condition treated it is anticipated that an effective daily dose of the compounds is in the range of 1 microgramm--10 mg per kg/body weight of the host. The ability of the compounds within the present invention to bind strongly and selectively to α2 adrenergic receptors in preference over α1 adrenergic receptors was confirmed by the following assay procedures which are generally recognized in the art to provide pertinent information with respect to the adrenergic activity of the compounds assayed: alpha1 (human brain) assay, alpha2 A (HT-29 cells) assay, and alpha2 B (rat kidney) assay. A description of these assay procedures is as follows.
(§2) Membrane preparation: Membrane suspensions were prepared from human cerebral cortex (HCC), HT-29 cells (HT) and rat kidney cortex (RtKC), as applicable. Tissues were homogenized in iced-cold buffer [250 mM sucrose, 5 mM tris, pH 7.4 (RtKC), or 50 mM Tris-HCl, 5 mM EDTA, pH 7.4 (HCC, HT)] with a Polytron homogenizer for 30 secs at setting #7, and centrifuged for 10 minutes at 300×g at 4° C. The supernatant was diluted 1:2 with 50 mM Tris-HCl buffer, pH 7.4 (RkCC, HCC) or pH 8.0 (HT) then centrifuged at 49,000×g for 15-20 minutes. The pellet fraction was washed 3 times (resuspended in Tris-HCl buffer and centrifuged for 15-20 minutes at 49,000×g). The pellet was then stored at -80° C. until the binding assay. Binding studies: The radioligands [^3 H] rauwolscine (specific activity 80 Ci/mmol) and [^3 H] prazosin (specific activity 77 Ci/mmol) were obtained from New England Nuclear, Boston, Mass. Frozen membrane pellet was resuspended in glycine glycine buffer, pH 7.6. Membrane protein homogenate (150-300 μg) was incubated with radioligand under the following conditions: 22° C., 30 minutes (HCC, HT), 0° C., 120 minutes (RtKC), in a final volume of 500 μl. At the end of the incubation period, the samples were filtered through glass fiber filters (Whatman GF/B) in a 96-well cell harvester and rapidly washed four times with 4 mls of iced-cold 50 mM Tris-HCl buffer. The filters were then oven dried and transferred to scintillation vials containing 5 mls of Beckman's Ready Protein^R scintillation cocktail for counting. Non-specific binding was defined by 10 μM phentolamine. Protein concentrations were determined with a protein assay kit from Bio Rad. Binding isotherms, equilibrium dissociation and affinity constants were analyzed and determined by the non-linear least squares curve fitting program AccuFit Competition/Saturation by Beckman.
(§3) As it will be recognized by those skilled in the art from the forogoing descriptions, the described assays are radioligand assays which measure the binding of the test compound to the respective α1 or α2 receptor. […]

[2] = molecular target: α1 adrenergic receptor (human cerebral cortex membranes); assay: Alpha1 (human brain) receptor binding assay; conditions: 22° C., 30 minutes, [3H] radioligand
Excerpt: as §1
as §2, with “Membrane protein homogenate (150-300 μg) was incubated with radioligand under the following conditions: 22° C., 30 minutes (HCC, HT), 0° C., 120 minutes (RtKC), in a final volume of 500 μl. At the end of the incubation period, the samples were filtered through glass fiber filters (Whatman GF/B) in a 96-well cell harvester and rapidly washed four times with 4 mls of iced-cold 50 mM Tris-HCl buffer.” left out, “Non-specific binding was defined by 10 μM phentolamine.” left out, “Beckman. […]” for “Beckman.”

[3] = molecular target: T2, α2 A adrenergic receptor (HT-29 cells) (Homo sapiens, UniProt P08913); assay: Alpha2 A (HT-29 cells) receptor binding assay
T2 construct: Membrane suspensions were prepared from human cerebral cortex (HCC), HT-29 cells (HT) and rat kidney cortex (RtKC); endogenous in cells; host or cells: HT-29 cells
T2 sequence (P08913 whole entry): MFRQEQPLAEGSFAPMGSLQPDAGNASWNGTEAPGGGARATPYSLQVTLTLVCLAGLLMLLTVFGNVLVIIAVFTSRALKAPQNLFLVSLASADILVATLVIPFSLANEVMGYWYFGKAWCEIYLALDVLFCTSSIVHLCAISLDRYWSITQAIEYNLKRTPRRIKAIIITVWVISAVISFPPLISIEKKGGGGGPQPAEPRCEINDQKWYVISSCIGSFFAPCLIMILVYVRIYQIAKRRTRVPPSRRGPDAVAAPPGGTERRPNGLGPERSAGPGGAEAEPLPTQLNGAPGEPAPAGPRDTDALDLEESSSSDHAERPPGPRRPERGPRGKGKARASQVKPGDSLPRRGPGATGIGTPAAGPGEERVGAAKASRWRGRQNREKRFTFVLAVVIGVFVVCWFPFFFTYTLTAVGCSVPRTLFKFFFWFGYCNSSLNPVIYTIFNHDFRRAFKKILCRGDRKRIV
Excerpt: as §1, §2, §3

Compound | Ki [1] [nM] | Ki [2] [nM] | Ki [3] [nM] | Ki ([1]; rat kidney cortex membranes, 0° C., 120 minutes, [3H] radioligand, read-out: α2 B Ki) [nM]
Cc1cccc(NC2=NCCO2)c1C [Compound 1, 2-[2,3-Dimethylphenylamino)-oxazoline] | 8.5 | 1210 | 5.1 | 
Cc1ccccc1NC1=NCCO1 [Compound 1a] |  | 7400 | 35.7 | 208
c1cc2c(c(NC3=NCCO3)c1)CCCC2 [Compound 2, 2-(5,6,7,8-tetrahydronaphthylamino)-oxazoline] | 6.2 |  | 2.2 | 
Cc1cccc(N=C2NCCN2)c1C [Compound 3, 2-(2,3-Dimethylphenylimino)-imidazolidine] | 1.5 | 434 | 5.8 | 
Cc1ccccc1N=C1NCCN1 [Compound 3a, 2-(2-methylphenylimino)-imidazolidine] | 25.3 | 2170 | 7.5 | 
